# Assay results taken from patent publication US8470384B2, “Oxalamide derivative as umami flavouring agent” (Givaudan S.A., priority 2010, dated 2013).
# Tests used:
# [1] = test system: professional panel composed of 2 women and 3 men; experiment: Tasting of 0.3% NaCl solutions by a professional panel (Example 2); type: in vivo, human
# Method: (§1) Two solutions were prepared:
# A—a solution of 0.3% NaCl and 0.05% MSG
# B—a solution of 0.3% NaCl and 3 ppm of N1-geranyl-N2-(2-(pyridin-2-yl)ethyl)oxalamide.
# The samples were tasted by a professional panel composed of 2 women and 3 men aged between 30 and 60. The panel agreed that both solutions tasted umami.
# [2] = test system: professional panel composed of 2 women and 3 men; experiment: Tasting of NaCl/MSG/ribonucleotide solutions with reduced MSG by a professional panel (Example 3); type: in vivo, human; conditions: solution B (0.5% NaCl, 0.05% MSG, 0.010% ribonucleotide mixture, 1.5 ppm compound) vs solution A (0.5% NaCl, 0.15% MSG, 0.025% ribonucleotide mixture)
# Method: as §1
# A—a solution of 0.5% NaCl, 0.15% MSG and 0.025% Ribonucleotide mixture
# B—a solution of 0.5% NaCl, 0.05% MSG, 0.010% Ribonucleotide mixture and 1.5 ppm of N1-geranyl-N2-(2-(pyridin-2-yl)ethyl)oxalamide.
# The samples were tasted by a professional panel composed of 2 women and 3 men aged between 30 and 60.
# [3] = General finding on umami flavour quality; conditions: very low dosages; in contrast to many other non-MSG umami flavourants
# [4] = solution B (0.3% NaCl, 3 ppm compound) vs solution A (0.3% NaCl, 0.05% MSG)
smiles,measurement,setting,value
CC(C)=CCC/C(C)=C/CNC(=O)C(=O)NCCc1ccccn1 [N1-geranyl-N2-(2-(pyridin-2-yl)ethyl)oxalamide],further taste attributes compared with solution A,[1]; [4],more succulence and sweetness and had more lingering savoury notes
same,umami strength compared with solution A,[1]; [4],slightly stronger umami
same,umami taste,[1]; solution B: 0.3% NaCl and 3 ppm of compound,tasted umami
same,umami strength compared with solution A,[2],equal umami strength
"N[C@@H](CCC(=O)O)C(=O)[O-].[Na+] [MSG, monosodium glutamate, reference compound]",umami taste,[1]; solution A: 0.3% NaCl and 0.05% MSG,tasted umami
CC(C)=CCC/C(C)=C/CNC(=O)C(=O)NCCc1ccccn1 [the Umami Compound],umami flavour and its quality,[3],"clean, non-artificial taste"
